Measured values from patent US9624247B2, “Pyrazolo-pyrrolidin-4-one derivatives as bet inhibitors and their use in the treatment of disease” (NOVARTIS AG, priority 2013, dated 2017).

Assays:
BRD4 (His-Brd4(44-477)) = BRD4 (His-Brd4(44-477)) (Homo sapiens (Human), UniProt O60885); assay: TR-FRET in-vitro binding assay for BRD4; conditions: acetyl-histone H4 peptide
Method: (§1) TR-FRET In-Vitro Binding Assays for BRD2, BRD3, and BRD4:
(§2) All assays were performed in 384 well microtiter plates. Each assay plate contained 8-point serial dilutions for 40 test compounds, plus 16 high- and 16 low controls. Liquid handling and incubation steps were done on an Innovadyne Nanodrop Express equipped with a robotic arm (Thermo CatX, Perkin Elmer/Caliper Twister II) and an incubator (Liconic STX40, Thermo Cytomat 2C450). The assay plates were prepared by addition of 50 nl per well of compound solution in 90% DMSO HummingBird nanodispenser (Zinsser Analytic). The assay was started by stepwise addition of 4.5 μl per well of bromo domain protein (50 mM HEPES, pH 7.5, 0.005% Tween20, 0.1% BSA, 50 mM NaCl, 45 nM His-Brd2(60-472) or 45 nM His-Brd3(20-477) or 45 nM His-Brd4(44-477) all proteins produced in-house) and 4.5 μl per well of peptide solution (50 mM HEPES, pH 7.5, 0.005% Tween20, 0.1% BSA, 50 mM NaCl, 60 nM acetyl-histone H4 (AcK 5, 8, 12, 16) (Biosyntan GmbH)). Reactions were incubated at 30° C. for 35 minutes. […] After 35 minutes incubation at 30° C., plates were measured in a Perkin Elmer EnVision multilabel reader. Concentrations causing 50% inhibition (IC50 values) were determined from percent inhibition values at different compound concentrations by non-linear regression analysis.
(§3) Preparation of Compound Dilutions
(§4) Test compounds were dissolved in DMSO (10 mM) and transferred into 1.4 mL flat bottom or V-shaped Matrix tubes carrying a unique 2D matrix. The stock solutions were stored at […] if not used immediately. For the test procedure the vials were defrosted and identified by a scanner whereby a working sheet was generated that guided the subsequent working steps. Compound dilutions were made in 96 well plates. This format enabled the assay of maximally 40 individual test compounds at 8 concentrations (single points) including 4 reference compounds, if desired (known BET inhibitors from the prior art, for this and other assays of the type disclosed herein). The dilution protocol included the production of “pre-dilution plates”, “master plates” and “assay plates”.
(§5) Pre-dilution plates: 96 polypropylene well plates were used as pre-dilution plates. A total of 4 pre-dilution plates were prepared including 10 test compounds each on the plate positions A1-A10, one standard compound at A11 and one DMSO control at A12. All dilution steps were done on a HamiltonSTAR robot.
(§6) Master plates: 30 μL of individual compound dilutions including standard compound and controls of the 4 “pre-dilution plates” were transferred into a 384 “master plate” including the following concentrations 10000, 3003, 1000, 300, 100, 30, 10 and 3 μM, respectively in 90% of DMSO.
(§7) Assay plates: Identical “assay plates” were then prepared by pipetting 50 nL each of compound dilutions of the “master plates” into 384-well “assay plates” by means of a HummingBird 384-channel dispenser. These plates were used directly for the assay which was performed in a total volume of 13.55 μL. This led to a final compound concentration of 37, 11, 3.7, 1.1, 0.37, 0.11, 0.037 and 0.011 μM and a final DMSO concentration of 0.37% in the assay.

BRD2 (His-Brd2(60-472)) = BRD2 (His-Brd2(60-472)) (Homo sapiens (Human), UniProt P25440); assay: TR-FRET in-vitro binding assay for BRD2; conditions: acetyl-histone H4 peptide
Method: as §1, §2, §3, §4, §5, §6, §7

BRD3 (His-Brd3(20-477)) = BRD3 (His-Brd3(20-477)) (Homo sapiens (Human), UniProt Q15059); assay: TR-FRET in-vitro binding assay for BRD3; conditions: acetyl-histone H4 peptide
Method: as §1
All assays were performed in 384 well microtiter plates. Each assay plate contained 8-point serial dilutions for 40 test compounds, plus 16 high- and 16 low controls. Liquid handling and incubation steps were done on an Innovadyne Nanodrop Express equipped with a robotic arm (Thermo CatX, Perkin Elmer/Caliper Twister II) and an incubator (Liconic STX40, Thermo Cytomat 2C450). The assay plates were prepared by addition of 50 nl per well of compound solution in 90% DMSO HummingBird nanodispenser (Zinsser Analytic). […] Reactions were incubated at 30° C. for 35 minutes. […] After 35 minutes incubation at 30° C., plates were measured in a Perkin Elmer EnVision multilabel reader.
as §3, §4, §5
(§8) These plates were used directly for the assay which was performed in a total volume of 13.55 μL.

[1] = target: CREBBP bromodomain (His-CREBBP(1081-1197)) (Homo sapiens (Human), UniProt Q92793); assay: AlphaScreen in-vitro binding assay for CREBBP; conditions: AlphaScreen, acetyl-histone H4 peptide; read-out: CREBBP IC50
Method: AlphaScreen In-Vitro Binding Assay for CREBBP
In order to assess bromodomain selectivity, we set up a binding assay using the bromodomain encoded by the CREBBP gene. […] Reactions were incubated at 30° C. for 35 minutes. Subsequently 4.5 μl per well detection mix (50 mM HEPES, pH 7.5, 0.005% Tween20, 0.02% BSA, 150 mM NaCl, 45 μg/ml Ni-chelate acceptor beads, 45 μg/ml streptavidin-donor beads) (Perkin Elmer)) were added. After 60 minutes incubation at room temperature, plates were measured in a Perkin Elmer EnVision multilabel reader. IC50 values were determined from percent inhibition values at different compound concentrations by non-linear regression analysis.
as §3, §4, §5, §8

MV-4-11 cells = assay: Cell growth inhibition assay (CellTiter-Glo), MV-4-11; assay type: cell-based, human; conditions: MV-4-11, 4 days; for GI50: Homo sapiens, MV4-11, 96 h, half-maximal growth inhibition; for MV-4-11 TGI: total growth inhibition
Method: (§9) Cell Growth Inhibition Assay
(§10) The human leukemia cell lines MV-4-11, THP-1 and K-562 were employed to characterize the effect of BET inhibitors on cellular proliferation and viability. Cells were obtained from the American Type Culture Collection (ATCC) and cultured at 37° C. in a humidified 5% CO2 incubator in the following media: MV-4-11: DMEM high glucose (Animed #1-26F01-I), 10% FCS (Animed #2-01F26-I), 4 mM L-Glutamine (Animed #5-10K50), 1 mM Sodium Pyruvate (Animed #G03625P), lx Penicillin-Streptomycin (Animed #F12478P); K-562: Iscove's MEM (Animed #1-28F16-I), 10% FCS (Animed #2-01F26-I), 4 mM L-Glutamine (Animed #5-10K50), 1× Penicillin-Streptomycin (Animed #F12478P); THP-1: RPMI-1640 (Animed #1-41F01-I), 10% FCS (Animed #2-01F26-I), 2 mM L-Glutamine (Animed #5-10K50), 10 mM HEPES (Animed #5-31F100), 1 mM Sodium Pyruvate (Animed #G03625P), 1× Penicillin-Streptomycin (Animed #F12478P). The AML lines MV-4-11 and THP-1 are very sensitive to BET inhibitors and show massive cell death upon BET inhibition (Zuber et al., Nature, 478 (2011), 524-8). Compound-mediated suppression of cell proliferation/viability was assessed by quantification of cellular ATP levels using the CellTiter-Glo (CTG) reagent (Promega). Briefly, cells were seeded in 20 μl fresh medium into 384-well plates, followed by addition of 5 μl medium containing compound dilutions at 5-fold their final intended concentration. Dose-response effects were assessed by 3-fold serial dilutions of the test compound, starting at 10 μM. Following incubation of the cells for 4 days at 37° C. and 5% CO2, the effect of inhibitors on cell viability was quantified following addition of 20 μl CTG and luminescence quantification (integration time: 100 ms) as per vendor manual, using a correspondingly equipped Tecan M200 multi-mode platereader (TECAN, Switzerland). For data analysis, the assay background value determined in wells containing medium, but no cells, was subtracted from all data points. To enable differentiation of cytotoxic from cytostatic compounds, the number of viable cells is assessed relative to that observed at the time of compound addition using a separate cell plate (day 0). The effect of a particular test compound concentration on cell proliferation/viability is expressed as percentage of the background- and day 0-corrected luminescence reading obtained for cells treated with vehicle only (DMSO, 0.1% final concentration), which is set as 100%, whereas that luminescence reading for wells containing medium is set as −100%. Compound concentrations leading to half-maximal (IC50) and total growth inhibition (TGI) were determined using standard four parameter curve fitting.

THP-1 cells = assay: Cell growth inhibition assay (CellTiter-Glo), THP-1; assay type: cell-based, human; conditions: THP-1, 4 days; for GI50: Homo sapiens, 96 h, half-maximal growth inhibition; for THP-1 TGI: total growth inhibition
Method: as §9, §10

K-562 cells = assay: Cell growth inhibition assay (CellTiter-Glo), K-562; assay type: cell-based, human; conditions: K-562, 4 days; for GI50: Homo sapiens, K562, 96 h, half-maximal growth inhibition; for K-562 TGI: total growth inhibition
Method: as §9, §10

Sequence of BRD2 (His-Brd2(60-472)) (P25440 60-472): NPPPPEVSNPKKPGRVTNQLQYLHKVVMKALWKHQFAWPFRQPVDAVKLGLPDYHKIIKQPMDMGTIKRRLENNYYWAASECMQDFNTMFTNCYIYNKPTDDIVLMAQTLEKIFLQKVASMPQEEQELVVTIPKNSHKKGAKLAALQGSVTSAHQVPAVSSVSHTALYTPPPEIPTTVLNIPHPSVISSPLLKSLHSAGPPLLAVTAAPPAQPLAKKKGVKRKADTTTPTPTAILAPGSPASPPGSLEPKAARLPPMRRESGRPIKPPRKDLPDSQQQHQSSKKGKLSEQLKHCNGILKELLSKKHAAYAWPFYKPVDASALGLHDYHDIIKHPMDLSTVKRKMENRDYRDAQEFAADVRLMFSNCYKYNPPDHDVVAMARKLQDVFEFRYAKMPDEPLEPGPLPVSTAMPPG
Sequence of BRD3 (His-Brd3(20-477)) (Q15059 20-477): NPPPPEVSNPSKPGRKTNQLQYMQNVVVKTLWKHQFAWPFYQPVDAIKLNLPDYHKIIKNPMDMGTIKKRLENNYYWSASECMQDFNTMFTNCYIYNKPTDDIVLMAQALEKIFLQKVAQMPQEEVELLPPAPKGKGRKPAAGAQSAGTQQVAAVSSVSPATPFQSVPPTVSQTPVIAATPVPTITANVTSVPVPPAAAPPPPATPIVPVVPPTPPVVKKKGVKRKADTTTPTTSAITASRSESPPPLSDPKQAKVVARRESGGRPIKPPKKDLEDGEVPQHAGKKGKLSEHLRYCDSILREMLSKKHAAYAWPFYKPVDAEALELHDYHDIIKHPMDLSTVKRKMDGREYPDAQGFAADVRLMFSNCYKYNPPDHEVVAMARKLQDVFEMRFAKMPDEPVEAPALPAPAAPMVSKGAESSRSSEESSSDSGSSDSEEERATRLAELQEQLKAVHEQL
Sequence of CREBBP bromodomain (His-CREBBP(1081-1197)) (Q92793 1081-1197): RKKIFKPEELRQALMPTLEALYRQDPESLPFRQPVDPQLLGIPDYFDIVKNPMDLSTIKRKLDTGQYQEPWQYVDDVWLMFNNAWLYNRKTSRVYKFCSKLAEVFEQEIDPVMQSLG

Compound	IC50 (BRD4 (His-Brd4(44-477)))	IC50 (BRD2 (His-Brd2(60-472)))	IC50 (BRD3 (His-Brd3(20-477)))	IC50 [1]	GI50 (MV-4-11 cells)	MV-4-11 TGI (MV-4-11 cells)	GI50 (THP-1 cells)	THP-1 TGI (THP-1 cells)	GI50 (K-562 cells)	K-562 TGI (K-562 cells)
COc1cc(N2C(=O)c3c(C4CC4)nn(C)c3[C@H]2c2ccc(Cl)cc2)cn2c(C)nnc12 [Example 14, (R)-6-(4-chlorophenyl)-3-cyclopropyl-5-(8-methoxy-3-methyl-[1,2,4]triazolo[4,3-a]-pyridin-6-yl)-1-methyl-5,6-dihydropyrrolo[3,4-c]pyrazol-4(1H)-one]	30 nM	57 nM	55 nM	27500 nM	20.1 nM	39.55 nM	51.4 nM	118.5 nM	152 nM	>10000 nM
COCCn1nc(C2CC2)c2c1[C@@H](c1ccc(Cl)cc1)N(c1cc(C)c3nnc(C)n3c1)C2=O [Example 15, (R)-6-(4-chlorophenyl)-3-cyclopropyl-5-(3,8-dimethyl-[1,2,4]triazolo[4,3-a]pyridin-6-yl)-1-(2-methoxyethyl)-5,6-dihydropyrrolo[3,4-c]pyrazol-4(1H)-one]	18 nM	20 nM	16 nM	6100 nM	2.41 nM	5.79 nM	6.42 nM	13.9 nM	26.5 nM	>10000 nM
Cc1cc(N2C(=O)c3c(C4CC4)nn(C)c3[C@H]2c2ccc(Cl)cc2)cn2c(CF)nnc12 [Example 17, (R)-6-(4-chlorophenyl)-3-cyclopropyl-5-(3-(fluoromethyl)-8-methyl-[1,2,4]triazolo-[4,3-a]pyridin-6-yl)-1-methyl-5,6-dihydropyrrolo[3,4-c]pyrazol-4(1H)-one]	< 11 nM	11 nM	< 11 nM	9800 nM	4.28 nM	9.765 nM	9.68 nM	24.7 nM	63.1 nM	>10000 nM
Cc1cc(N2C(=O)c3c(C4CC4)nn(C[C@@H](O)C(F)(F)F)c3[C@H]2c2ccc(Cl)cc2)cn2c(C)nnc12 [Example 19, (R)-6-(4-chlorophenyl)-3-cyclopropyl-5-(3,8-dimethyl-[1,2,4]triazolo[4,3-a]pyridin-6-yl)-1-((R)-3,3,3-trifluoro-2-hydroxypropyl)-5,6-dihydropyrrolo[3,4-c]pyrazol-4(1H)-one]	23 nM	29 nM	25 nM	9400 nM	5.23 nM	11.3 nM	14.7 nM	36.6 nM	58.4 nM	>10000 nM
Cc1cc(N2C(=O)c3c(C4CC4)nn(C[C@H](O)C(F)(F)F)c3[C@H]2c2ccc(Cl)cc2)cn2c(C)nnc12 [Example 20, (R)-6-(4-chlorophenyl)-3-cyclopropyl-5-(3,8-dimethyl-[1,2,4]triazolo[4,3-a]pyridin-6-yl)-1-((S)-3,3,3-trifluoro-2-hydroxypropyl)-5,6-dihydropyrrolo[3,4-c]pyrazol-4(1H)-one]	15 nM	13 nM	12 nM	7900 nM	6.47 nM	16.1 nM	20.9 nM	44.7 nM	96 nM	>10000 nM
